Data published in publication PMC11254100 (Angewandte Chemie (International ed. in English), 2024).

Test system: anti-HA mAb clone 12ca5
Format: binding

| Substance | enrichment in affinity selection |
| --- | --- |
| cyclo(GDAGPYDADYA) | enriched |
| cyclo(GDVGPDAYDYA) | enriched |
| cyclo(GDVWALYASYA) | not enriched in the selection |
